Results on 19 compounds are retold here after ChEMBL document CHEMBL3124869 (J Med Chem, 2014).

The nature of data set [1]: in vitro. The settings on record: human, liver microsomes.
Description: Apparent total intrinsic clearance in human liver microsomes
Data set [2] in a line: in vitro. The settings on record: dog, MDCK.
Description: Intrinsic absorptive permeability from apical to basolateral side of dog RRCK cells
A further data set is described as follows: physchem. The note with it: octanol/water, pH 7.4.
Data set [3] is described as follows: Antitumor activity against human NCI-H3122 cells harboring ALK L1196M mutant xenografted in athymic nu/nu mouse assessed as tumor total growth inhibition at 15 mg/kg, po bid administered via gavage starting on day 15 post tumor implantation. Type of data set: functional. The settings on record: NCI-H3122, 360 h, read-out: TGI.
Data set [4] in a line: Antitumor activity against human NCI-H3122 cells harboring ALK L1196M mutant xenografted in athymic nu/nu mouse assessed as tumor total growth inhibition at 30 mg/kg, po qd administered via gavage starting on day 15 post tumor implantation. Type of data set: functional. The note with it: NCI-H3122, 360 h, read-out: TGI.
The next data set deals with Mus musculus. Kind of data set: Toxicity in po dosed athymic nu/nu mouse xenografted with human NCI-H3122 cells harboring ALK L1196M mutant assessed as body weight reduction administered via gavage starting on day 15 post tumor implantation. The data set is classed as organism-based. The note with it: in vivo.
A short description of data set [5]: Tmax in rat at 5 mg/kg, po. The data set is classed as ADME, organism-based. Further details: dose 5 mg/kg, route oral. The settings on record: in vivo.
Data set [6] in a line: Cmax in rat at 5 mg/kg, po. Type of data set: ADME, organism-based. Further details: dose 5 mg/kg, route oral. The note with it: in vivo.
Data set [7] deals with NT-3 growth factor receptor (Homo sapiens, UniProt Q16288). Kind of data set: Inhibition of NTRK3 (unknown origin) using Km levels of ATP.
The target of data set [8] is Tyrosine-protein kinase Fer (Homo sapiens, UniProt P16591). Kind of data set: Inhibition of FER (unknown origin) using Km levels of ATP.
A short description of data set [9]: AUC in rat at 1 mg/kg, iv. The data set is classed as ADME, organism-based. The settings on record: plasma. Also on record: dose 1 mg/kg, route intravenous.
Data set [10] deals with Proto-oncogene tyrosine-protein kinase ROS (Homo sapiens, UniProt P08922). Kind of data set: Inhibition of ROS1 (unknown origin) by Pfizer mobility shift assay.
A further data set deals with Activated CDC42 kinase 1 (Homo sapiens, UniProt Q07912).
Data set [11] in a line: Oral bioavailability in rat at 5 mg/kg. The settings on record: in vivo. The data set is classed as ADME, organism-based.
Data set [12] in a line: Half life in rat at 1 mg/kg, iv. The note with it: in vivo. Also on record: dose 1 mg/kg, route intravenous. The data set is classed as ADME, organism-based.
Data set [13] is described as follows: AUC in rat at 5 mg/kg, po. Further details: dose 5 mg/kg, route oral. The data set is classed as ADME, organism-based. The note with it: plasma.
In data set [14] the target is BDNF/NT-3 growth factors receptor (Homo sapiens, UniProt Q16620). Briefly: Inhibition of NTRK2 (unknown origin) using Km levels of ATP.
Data set [15] concerns the target High affinity nerve growth factor receptor (Homo sapiens, UniProt P04629). Briefly: Inhibition of NTRK1 (unknown origin) using Km levels of ATP.
The nature of data set [16]: Plasma clearance in rat at 1 mg/kg, iv. Type of data set: ADME, organism-based. Also on record: dose 1 mg/kg, route intravenous.
Data set [17] can be described thus: Antitumor activity against human NCI-H3122 cells harboring ALK L1196M mutant xenografted in athymic nu/nu mouse assessed as tumor growth regression at 50 mg/kg, po bid administered via gavage starting on day 15 post tumor implantation measured on day 27. Type of data set: functional.
Data set [18] deals with Tyrosine-protein kinase Fes/Fps (Homo sapiens, UniProt P07332). Briefly: Inhibition of FES (unknown origin) using Km levels of ATP.
For another data set, the target named is Focal adhesion kinase 1 (Homo sapiens, UniProt Q05397). Briefly: Inhibition of PTK2 (unknown origin) using Km levels of ATP.
Data set [19] can be described thus: Volume of distribution at steady state in rat at 1 mg/kg, iv. Type of data set: ADME, organism-based. Also on record: dose 1 mg/kg, route intravenous. The settings on record: in vivo, read-out: Vdss.
Data set [20] has as its target Leukocyte tyrosine kinase receptor (Homo sapiens, UniProt P29376). Briefly: Inhibition of LTK (unknown origin) using Km levels of ATP.
The target in data set [21] is T1, ALK tyrosine kinase receptor (Homo sapiens, UniProt Q9UM73, L1196M).
In data set [22] the target is T1, ALK tyrosine kinase receptor. This is another data set of the same source.

As to `Cc1nc([C@@](C)(O)CO)sc1-c1cnc(N)c(O[C@H](C)c2cc(F)ccc2-n2nccn2)c1`, the CLint scaled in the data set “in vitro [1]” worked out at 15 mL/min/kg. Moreover, the apparent permeability from apical to basolateral (Papp A→B) in “in vitro [2]” amounted to 17 ×10⁻⁶ cm/s. Moreover, in “physchem”, the logD was determined as 2.9.

In turn, `C[C@@H](Oc1cc(-c2cn(C)nc2C#N)cnc1N)c1cc(F)ccc1-n1nccn1` showed a CLint scaled in the data set “in vitro [1]” of 22 mL/min/kg. Also, the Papp A→B in “in vitro [2]” came to 18 ×10⁻⁶ cm/s. The compound further returned a logD in the data set “physchem” of 3.3.

Compound `C[C@@H](Oc1cc(-c2ccnn2C)cnc1N)c1cc(F)ccc1-n1nccn1` registered a CLint scaled in “in vitro [1]” of 17 mL/min/kg. This compound also registered a Papp A→B in “in vitro [2]” of 22 ×10⁻⁶ cm/s. Besides, the logD in “physchem” was 3.3.

The compound `C[C@@H](Oc1cc(-c2cnnn2C)cnc1N)c1cc(F)ccc1-n1nccn1` came in with a CLint scaled in the data set “in vitro [1]” of 3 mL/min/kg. In “in vitro [2]”, this compound returned a Papp A→B of 24 ×10⁻⁶ cm/s. Moreover, in “physchem”, the logD is 2.4.

Turning to `COc1ncccc1-c1cnc(N)c(O[C@H](C)c2cc(F)ccc2-n2nccn2)c1`, the CLint scaled in the data set “in vitro [1]” worked out at 38 mL/min/kg. The compound also displayed a Papp A→B in “in vitro [2]” of 14 ×10⁻⁶ cm/s. In “physchem”, this compound registered a logD of 3.7.

For `COc1ncncc1-c1cnc(N)c(O[C@H](C)c2cc(F)ccc2-n2nccn2)c1`, in the data set “in vitro [1]”, the CLint scaled amounted to 49 mL/min/kg. Moreover, the Papp A→B in the data set “in vitro [2]” was 22 ×10⁻⁶ cm/s. In the data set “physchem”, this compound returned a logD of 3.1.

In the data set “in vitro [1]”, `Cc1nc(C(C)(C)O)ccc1-c1cnc(N)c(O[C@H](C)c2cc(F)ccc2-n2nccn2)c1` registered a CLint scaled of 49 mL/min/kg. The compound also gave a Papp A→B in the data set “in vitro [2]” of 14 ×10⁻⁶ cm/s. This compound registered a pH-dependent lipophilicity (logD) in “physchem” of 3.6.

Compound `Cc1nc(C(C)(C)O)sc1-c1cnc(N)c(O[C@H](C)c2cc(F)ccc2-n2nccn2)c1` registered a CLint scaled in “in vitro [1]” of 23 mL/min/kg. In the data set “in vitro [2]”, this compound returned a Papp A→B of 18 ×10⁻⁶ cm/s. In addition, the logD in “physchem” was 3.6.

As to `Cc1nccn1-c1cnc(N)c(O[C@H](C)c2cc(F)ccc2-n2nccn2)c1`, the CLint scaled in the data set “in vitro [1]” stood at 80 mL/min/kg. This compound displayed a Papp A→B in “in vitro [2]” of 21 ×10⁻⁶ cm/s. Besides, in the data set “physchem”, the logD turned out to be 2.4.

In the data set “in vitro [1]”, `Cc1nc(C2(O)CN(C)C2)sc1-c1cnc(N)c(O[C@H](C)c2cc(F)ccc2-n2nccn2)c1` showed a CLint scaled of 55 mL/min/kg. In addition, the Papp A→B in the data set “in vitro [2]” worked out at 3.4 ×10⁻⁶ cm/s. In the data set “physchem”, the logD was determined as 2.6.

With `Cc1nc(C2(O)CCS(=O)(=O)C2)sc1-c1cnc(N)c(O[C@H](C)c2cc(F)ccc2-n2nccn2)c1` (stereo not given in full), the CLint scaled in the data set “in vitro [1]” came out at 13 mL/min/kg. Further, the apical-to-basolateral permeability (Papp A→B) in the data set “in vitro [2]” was determined as 14 ×10⁻⁶ cm/s. In “physchem”, the logD was 3.2.

As to `Cc1nc([C@](C)(O)CO)sc1-c1cnc(N)c(O[C@H](C)c2cc(F)ccc2-n2nccn2)c1`, in data set [3], the inhibition in vivo at 15 mg/kg worked out at 100%. Besides, the inhibition in vivo at 30 mg/kg in data set [4] was found to be 100%. Further, the Activity result with Mus musculus is on record as “Non-toxic”; in [17], 56%. Also, the Tmax in [5] was found to be 1.3 h. Also, in data set [6], the concentration peaked (Cmax) at 568 nM. The IC50 in data set [7] is 18 nM; in data set [8] it was 2 nM; at Activated CDC42 kinase 1 it was 15 nM; in data set [14] it was 4 nM; in [15], 17 nM; in data set [18], 5 nM. In addition, the IC50 against Focal adhesion kinase 1 is 16 nM; in data set [20] it was 2 nM. Moreover, the AUC was 0.667 µM·h in [9] and 2.87 µM·h in data set [13]. Moreover, the Ki in [10] is 0.02 nM. Moreover, in [11], the bioavailability turned out to be 86%. The half-life in data set [12] was 0.9 h. Moreover, the CLint scaled in “in vitro [1]” worked out at 15 mL/min/kg. In “in vitro [2]”, this compound displayed a Papp A→B of 19 ×10⁻⁶ cm/s. Also, the clearance in data set [16] stood at 54 mL/min/kg. The logD in “physchem” was found to be 2.9. In data set [19], the Vd turned out to be 2 L/kg.

In turn, `C[C@@H](Oc1cc(-c2cnn(C3CCNCC3)c2)cnc1N)c1cc(F)ccc1Cl` returned a Ki in [21] of 5 nM. Moreover, the CLint scaled in “in vitro [1]” stood at 27 mL/min/kg. Besides, half-maximal inhibition in [22] (IC50) required 387 nM. For the same compound, the Papp A→B in “in vitro [2]” is 2.3 ×10⁻⁶ cm/s. The same compound returned a logD in the data set “physchem” of 1.7.

`Cc1n[nH]cc1-c1cnc(N)c(O[C@H](C)c2cc(F)ccc2F)c1` had a CLint scaled in “in vitro [1]” of 31 mL/min/kg. Besides, in the data set “in vitro [2]”, the Papp A→B is 18 ×10⁻⁶ cm/s. This compound also showed a logD in “physchem” of 3.4.

Compound `Cc1n[nH]cc1-c1cnc(N)c(O[C@@H](C)c2cc(F)ccc2C#N)c1` gave a CLint scaled in “in vitro [1]” of 37 mL/min/kg. In the data set “in vitro [2]”, this compound yielded a Papp A→B of 20 ×10⁻⁶ cm/s. The compound further returned a logD in “physchem” of 2.7.

The compound `COc1ccc(F)cc1[C@@H](C)Oc1cc(-c2c[nH]nc2C)cnc1N` gave a CLint scaled in “in vitro [1]” of 65 mL/min/kg. For the same compound, the Papp A→B in the data set “in vitro [2]” was 14 ×10⁻⁶ cm/s. Besides, the logD in “physchem” amounted to 3.5.

In the data set “in vitro [1]”, `Cc1n[nH]cc1-c1cnc(N)c(O[C@H](C)c2cc(F)ccc2-n2nccn2)c1` had a CLint scaled of 46 mL/min/kg. In “in vitro [2]”, this compound gave a Papp A→B of 21 ×10⁻⁶ cm/s. In the data set “physchem”, the logD turned out to be 3.3.

`Cc1nn(C)cc1-c1cnc(N)c(O[C@H](C)c2cc(F)ccc2-n2nccn2)c1` registered a CLint scaled in “in vitro [1]” of 68 mL/min/kg. Further, the Papp A→B in “in vitro [2]” turned out to be 27 ×10⁻⁶ cm/s. In “physchem”, this compound showed a logD of 3.4.

In turn, `Cc1nc(C2(O)CCOC2)sc1-c1cnc(N)c(O[C@H](C)c2cc(F)ccc2-n2nccn2)c1` (single isomer, unassigned) came in with a CLint scaled in the data set “in vitro [1]” of 138 mL/min/kg. Besides, the Papp A→B in the data set “in vitro [2]” is 21 ×10⁻⁶ cm/s. This compound returned a logD in the data set “physchem” of 3.3.
